Experiments:
SOST (Sclerostin) = assay: Assay for identification of SOST antagonists promoting bone growth (J Bone Miner Res 2006, 21(11), 1738-1749)
Text: Compounds useful in the methods of the present invention can be identified via a variety of methods known to one of skill in the art. Several exemplary methods for identifying such antagonists are described herein, including cell-based and in vitro techniques (Journal of Bone and Mineral Research 2006, 21(11), 1738-1749). A general method of identifying SOST antagonists involves evaluating the effects of antagonist candidates on bone formation under controlled conditions. Preferably bone formation is determined using micro-CT techniques on live animals. Preferred animals include rodents, more preferred are primates. Femur, tibia and vertebrae bones are particularly useful subjects for such study.
Briefly, the test animal is treated with a predetermined dose of a SOST antagonist candidate. A control animal is treated with a control solution, preferably a non-irritating buffer solution or other carrier.
Once the dosing schedule has been completed, both test and control animals are examined to determine the quantity of bone formation present. This can be accomplished by any suitable method, but is preferably performed on live animals to analyze the bone mineral content. Methods for micro-CT examination of bones in animals are well known in the art. […] Where necessary, levels of bone formation can be calculated by determining the volume of bone formation present in each animal. […]

C57BL/6 mice = assay: Bone growth study in mice, daily i.p. for 30 days; serum osteocalcin by EIA Elisa; format: in vivo; conditions: four month old male C57BL/6 mice
Method: Four month old male C57BL/6 mice were treated daily with saline vehicle or sclerostin inhibitors at low, mid, or high doses (via i.p) for 30 days. Study endpoints included a biochemical marker of bone formation, osteocalcin measured by EIA Elisa, and measurement of trabecular bone volume by mico-CT analysis on both the proximal tibia and L5 vertebra.

O=c1[nH]nc(SCCO)c(=O)[nH]1 [OGX-21]
modulation of the Wnt pathway (SOST (Sclerostin); FIG. 1): modulating the Wnt pathway | promotion of bone growth (SOST (Sclerostin); identification assay): promoting bone growth | percent increase in serum osteocalcin over baseline (C57BL/6 mice; 10 mg/kg (A)): 2% | percent increase in serum osteocalcin over baseline (C57BL/6 mice; 20 mg/kg (B)): 28% | percent increase in serum osteocalcin over baseline (C57BL/6 mice; 30 mg/kg (C)): 15%
